This note sets out measurements from article PMC4974736, “Corynebacterium glutamicum possesses β-N-acetylglucosaminidase” (BMC Microbiology, 2016).

Holding throughout (type): biochemical
In one assay the target is T1, NagZ (Bacillus subtilis, UniProt P40406).
T1 construct: codon-optimized synthetic gene in pEKEx3, overexpressed in C. glutamicum; cell extract, not purified
T1 sequence (P40406 17-642): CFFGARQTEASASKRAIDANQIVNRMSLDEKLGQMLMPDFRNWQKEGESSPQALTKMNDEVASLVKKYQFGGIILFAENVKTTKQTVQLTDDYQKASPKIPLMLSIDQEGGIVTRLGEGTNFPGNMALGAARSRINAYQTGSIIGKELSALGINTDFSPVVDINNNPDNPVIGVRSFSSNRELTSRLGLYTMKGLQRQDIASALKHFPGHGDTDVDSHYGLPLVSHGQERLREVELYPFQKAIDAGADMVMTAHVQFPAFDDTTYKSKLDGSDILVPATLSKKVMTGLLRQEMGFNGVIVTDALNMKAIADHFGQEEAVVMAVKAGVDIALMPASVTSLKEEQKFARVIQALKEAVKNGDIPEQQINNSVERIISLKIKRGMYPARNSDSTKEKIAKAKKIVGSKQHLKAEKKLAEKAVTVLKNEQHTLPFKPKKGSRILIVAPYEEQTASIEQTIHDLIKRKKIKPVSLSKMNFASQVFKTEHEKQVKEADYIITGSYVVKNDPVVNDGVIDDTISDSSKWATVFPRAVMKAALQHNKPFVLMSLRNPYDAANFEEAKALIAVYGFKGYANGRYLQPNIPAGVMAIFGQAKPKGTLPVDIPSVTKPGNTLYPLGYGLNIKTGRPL
Description: p-nitrophenol release at […] nm. The note with it: 100 mM phosphate pH 7.0; cell extract of overexpressing C. glutamicum; turnover only.

The target of assay [1] is T2, NagA2 fused to the C. glutamicum PhoD signal peptide (PhoD-nagA2) (Corynebacterium glutamicum, UniProt Q8NLT5).
T2 construct: gene Cgl2852; native signal peptide replaced by TAT signal peptide of PhoD (cg2485), expected to be cleaved on export; pEKEx3 in C. glutamicum; culture supernatant, not purified
T2 sequence (Q8NLT5 entry or part of it): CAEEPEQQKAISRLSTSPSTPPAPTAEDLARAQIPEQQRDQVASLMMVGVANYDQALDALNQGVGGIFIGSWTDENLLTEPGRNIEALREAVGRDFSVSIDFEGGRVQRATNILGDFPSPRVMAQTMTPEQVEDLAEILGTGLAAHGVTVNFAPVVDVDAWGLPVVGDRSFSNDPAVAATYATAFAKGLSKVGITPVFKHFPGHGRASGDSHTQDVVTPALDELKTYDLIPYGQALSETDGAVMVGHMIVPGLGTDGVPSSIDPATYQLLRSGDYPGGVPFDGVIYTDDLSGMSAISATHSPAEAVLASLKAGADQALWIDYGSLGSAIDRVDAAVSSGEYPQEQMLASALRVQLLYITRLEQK
Nature of the assay: p-nitrophenol release at […] nm, Eadie-Hofstee plot. To be noted: 100 mM phosphate pH 7.0; culture supernatant of overexpressing C. glutamicum.

For the next assay, the target named is T3, ChiB (Serratia marcescens, UniProt P11797).
T3 construct: native form or fused to TAT signal peptide of Cg0955 (SP0955); pEKEx3 in C. glutamicum; cell extract and supernatant, not purified
T3 sequence (P11797 1-499 limits assumed): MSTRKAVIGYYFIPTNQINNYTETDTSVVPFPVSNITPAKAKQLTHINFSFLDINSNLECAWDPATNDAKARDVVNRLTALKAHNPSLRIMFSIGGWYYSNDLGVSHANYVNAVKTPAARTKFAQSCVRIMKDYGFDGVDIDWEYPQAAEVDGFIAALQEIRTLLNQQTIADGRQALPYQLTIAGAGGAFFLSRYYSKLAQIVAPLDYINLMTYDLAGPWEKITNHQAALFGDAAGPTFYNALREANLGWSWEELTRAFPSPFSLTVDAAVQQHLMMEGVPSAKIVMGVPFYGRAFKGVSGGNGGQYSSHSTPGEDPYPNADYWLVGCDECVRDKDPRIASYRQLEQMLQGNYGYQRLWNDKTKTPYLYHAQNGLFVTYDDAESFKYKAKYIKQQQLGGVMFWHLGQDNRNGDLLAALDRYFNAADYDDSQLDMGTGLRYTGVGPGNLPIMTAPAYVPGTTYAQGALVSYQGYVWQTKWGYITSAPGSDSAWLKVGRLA
Description: p-nitrophenol release at […] nm. To be noted: 100 mM phosphate pH 7.0; cell extract and supernatant of overexpressing C. glutamicum; turnover only.

The target of assay [2] is T4, NagA2 lacking its own signal peptide (SP-less-nagA2) (Corynebacterium glutamicum, UniProt Q8NLT5).
T4 construct: gene Cgl2852; predicted native signal peptide removed; overexpressed from pEKEx3 in C. glutamicum; cell extract, not purified
T4 sequence (Q8NLT5 entry or part of it): as the sequence (Q8NLT5 entry or part of it) above
Nature of the assay: p-nitrophenol release at […] nm, Eadie-Hofstee plot. The note with it: 100 mM phosphate pH 7.0; cell extract fraction of overexpressing C. glutamicum.

As for `CC(=O)N[C@H]1[C@H](Oc2ccc([N+](=O)[O-])cc2)O[C@H](CO)[C@@H](O)[C@@H]1O` [4-Nitrophenyl N-acetyl-β-D-glucosaminide], on NagZ, the “p-nitrophenol release at 405 nm” value is given as “NagZ produced in C. glutamicum led to an intracellular specific activity of N-acetylglucosaminidase”.

Turning to `CC(=O)N[C@H]1[C@H](Oc2ccc([N+](=O)[O-])cc2)O[C@H](CO)[C@@H](O[C@@H]2O[C@H](CO)[C@@H](O)[C@H](O)[C@H]2NC(C)=O)[C@@H]1O` [4-nitrophenyl N,N’-diacetyl-β-D-chitobioside], the Michaelis constant (Km) in assay [1] turned out to be 270 ± 66 µM; in assay [2], 266 ± 37 µM. Moreover, the “p-nitrophenol release at 405 nm” value at ChiB is on record as “chitinase activity was quantified by measuring the hydrolysis of p-nitrophenol from 4-Nitrophenyl N,N’-diacetyl-β-D-chitobioside”.

The term Km denotes the concentration of substrate that gives half-maximal velocity.
